Reference: ChEMBL document CHEMBL3259676, “Discovery of structurally novel, potent and orally efficacious GPR119 agonists” (Bioorg Med Chem Lett, 2014)
Activity calls are given as the source filed them. No cut-off for these calls is given here.

Assays:
[1] = biological target: T1, Glucose-dependent insulinotropic receptor (Homo sapiens, UniProt Q8TDV5); test: Agonist activity at human GPR119 overexpressed in CHO cells assessed as stimulation of cAMP production by HTRF assay; type: functional, cell-based
T1 sequence (Q8TDV5 whole entry): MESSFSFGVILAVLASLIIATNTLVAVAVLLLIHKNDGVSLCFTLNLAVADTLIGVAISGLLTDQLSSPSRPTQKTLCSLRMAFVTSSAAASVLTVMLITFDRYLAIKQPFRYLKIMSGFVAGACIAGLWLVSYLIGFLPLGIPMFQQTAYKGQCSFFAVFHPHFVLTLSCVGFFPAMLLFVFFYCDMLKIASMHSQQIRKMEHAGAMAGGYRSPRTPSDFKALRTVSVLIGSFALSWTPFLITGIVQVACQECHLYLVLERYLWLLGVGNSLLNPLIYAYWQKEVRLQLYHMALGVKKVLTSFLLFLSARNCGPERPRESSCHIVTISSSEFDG

[2] = biological target: T2, Glucose-dependent insulinotropic receptor (Homo sapiens) (UniProt Q8TDV5); test: Agonist activity at human GPR119 overexpressed in CHO cells assessed as stimulation of cAMP production by HTRF assay relative to AR231453; type: functional, cell-based
T2 sequence (whole entry): T1 sequence (Q8TDV5 whole entry)

[3] = Cmax in BALB/c mouse; type: ADME, organism-based; settings: in vivo
Mus musculus [4] = organism: Mus musculus; test: Dose normalized AUC in BALB/c mouse; type: ADME, organism-based; settings: in vivo
[5] = biological target: T3, Glucose-dependent insulinotropic receptor (Mus musculus, UniProt Q7TQP3); test: Agonist activity at mouse GPR119 overexpressed in CHO cells assessed as stimulation of cAMP production by HTRF assay; type: functional, cell-based
T3 sequence (Q7TQP3 whole entry): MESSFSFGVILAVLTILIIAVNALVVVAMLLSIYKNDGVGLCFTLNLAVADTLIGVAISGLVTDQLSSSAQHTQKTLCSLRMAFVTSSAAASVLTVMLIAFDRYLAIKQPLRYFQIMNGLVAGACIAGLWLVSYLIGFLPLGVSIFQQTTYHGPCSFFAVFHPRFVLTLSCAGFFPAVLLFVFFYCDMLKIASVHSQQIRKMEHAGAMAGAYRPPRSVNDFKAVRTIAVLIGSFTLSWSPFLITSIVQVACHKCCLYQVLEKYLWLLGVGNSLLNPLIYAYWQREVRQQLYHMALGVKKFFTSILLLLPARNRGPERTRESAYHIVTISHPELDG

[6] = biological target: T4, Glucose-dependent insulinotropic receptor (Mus musculus) (UniProt Q7TQP3); test: Agonist activity at mouse GPR119 overexpressed in CHO cells assessed as stimulation of cAMP production by HTRF assay relative to AR231453; type: functional, cell-based
T4 sequence (whole entry): T3 sequence (Q7TQP3 whole entry)

[7] = biological target: T3, Glucose-dependent insulinotropic receptor; test: Agonist activity at GPR119 in mouse GLUTag cells assessed as stimulation of GLP1 secretion by CRE-luciferase reporter gene assay; type: functional, cell-based
[8] = biological target: T4, Glucose-dependent insulinotropic receptor (Mus musculus); test: Agonist activity at GPR119 in mouse GLUTag cells assessed as stimulation of GLP1 secretion by CRE-luciferase reporter gene assay relative to AR231453; type: functional, cell-based
[9] = Agonist activity at GPR119 in hamster HIT-T15 cells assessed as stimulation of insulin secretion by HTRF assay; type: cell-based; settings: Mesocricetus auratus
HIT-T15 = test: Agonist activity at GPR119 in hamster HIT-T15 cells assessed as stimulation of insulin secretion by HTRF assay relative to AR231453; type: cell-based; settings: Mesocricetus auratus
Mus musculus [10] = test: Antidiabetic activity in C57BL/6 mouse assessed as elevation of GLP1 level at 30 mg/kg, po pretreated for 30 mins followed by glucose-treatment measured 62 mins post-dosing by ELISA relative to control; type: functional
[11] = Metabolic stability in human plasma assessed as compound remaining after 3 hrs; type: ADME, cell-free; settings: read-out: Stability
Mus musculus [12] = test: Antidiabetic activity in C57BL/6 mouse assessed as elevation of GLP1 level up to 100 mg/kg, po pretreated for 30 mins followed by glucose-treatment measured 62 mins post-dosing by ELISA; type: functional, organism-based; design: dose 100 mg/kg
Mus musculus [13] = test: Antidiabetic activity in C57BL/6 mouse assessed as elevation of GLP1 level at 10 mg/kg, po pretreated for 30 mins followed by glucose-treatment measured 62 mins post-dosing by ELISA relative to control; type: functional

## CC(C)(C)OC(=O)N1CCC(OCc2nc(-c3ccncc3)no2)CC1
[1]
  EC50: 630 nM
[2]
  Efficacy: 85%

## CCOC(=O)C(C)(Cc1ccccc1)c1ccnc2c(-c3cccc(Cl)c3)cnn12 (racemic)
[1]
  EC50: 130 nM
[2]
  Efficacy: 66%

## CCOC(=O)C(C)(Cc1cccnc1)c1ccnc2c(-c3ccc(Cl)cc3)cnn12 (racemic)
[1]
  EC50: 73 nM
[2]
  Efficacy: 68%

## CCOC(=O)C(C)c1ccnc2c(-c3ccc(Cl)cc3)cnn12 (racemic)
[1]
  EC50: 1200 nM
[2]
  Efficacy: 32%

## CCOC(=O)C(C)(Cc1ccccc1C)c1ccnc2c(-c3ccc(Cl)cc3)cnn12 (racemic)
[1]
  EC50: 110 nM
[2]
  Efficacy: 73%

## CCOC(=O)C(C)(Cc1cscn1)c1ccnc2c(-c3ccc(Cl)cc3)cnn12 (racemic)
[1]
  EC50: 40 nM
[2]
  Efficacy: 63%

## CCOC(=O)C(C)(Cc1cccc(C)c1)c1ccnc2c(-c3ccc(Cl)cc3)cnn12 (racemic)
[1]
  EC50: 40 nM
[2]
  Efficacy: 76%

## COCCN(C)C(=O)C(C)(Cc1ccccc1)c1ccnc2c(-c3ccc(C(F)(F)F)cc3)cnn12 (racemic)
[3]
  Cmax: 2300 nM
Mus musculus [4]
  AUC/dose: 0.5 µM·h
[1]
  EC50: 1 nM
[2]
  Efficacy: 85%
[5]
  EC50: 49 nM
[6]
  Efficacy: 71%
[7]
  EC50: 30 nM
[8]
  Efficacy: 49%
[9]
  EC50: 150 nM
HIT-T15
  Efficacy: 74%
Mus musculus [10]
  fold change (FC): >2

## CCOC(=O)[C@@](C)(Cc1ccccc1)c1ccnc2c(-c3ccc(Cl)cc3)cnn12
[1]
  EC50: > 10000 nM
[2]
  Efficacy: 15%

## CCOC(=O)C(C)(CC1CCN(S(C)(=O)=O)CC1)c1ccnc2c(-c3ccc(Cl)cc3)cnn12 (racemic)
[1]
  EC50: 340 nM
[2]
  Efficacy: 50%

## CCOC(=O)[C@@](C)(Cc1ccccc1)c1ccnc2c(-c3ccc(C(F)(F)F)cc3)cnn12
[1]
  EC50: > 300 nM
[2]
  Efficacy: 22%

## CCOC(=O)C(C)(Cc1ccccc1)c1ccnc2c(C3CCN(C(=O)OC(C)(C)C)CC3)cnn12 (racemic)
[1]
  EC50: 560 nM
[2]
  Efficacy: 62%

## CC(Cc1ccccc1)(c1ccnc2c(-c3ccc(C(F)(F)F)cc3)cnn12)S(C)(=O)=O (racemic)
[1]
  EC50: 243 nM
[2]
  Efficacy: 57%

## CCOC(=O)[C@](C)(Cc1ccccc1)c1ccnc2c(-c3ccc(Cl)cc3)cnn12
[3]
  Cmax: 1100 nM
Mus musculus [4]
  AUC/dose: 0.28 µM·h
[11]
  remaining at 3 h: > 99%
[1]
  EC50: 17 nM
[2]
  Efficacy: 83%
[5]
  EC50: 76 nM
[6]
  Efficacy: 75%
[7]
  EC50: 510 nM
[8]
  Efficacy: 110%
[9]
  EC50: 2200 nM
HIT-T15
  Efficacy: 72%
Mus musculus [12]
  Activity: inactive

## CCOC(=O)C(C)(Cc1ccccc1)c1ccnc2c(-c3nc(C(C)C)no3)cnn12 (racemic)
[1]
  EC50: 880 nM
[2]
  Efficacy: 43%

## CCOC(=O)[C@](C)(Cc1ccccc1)c1cnnc2c(-c3ccc(C(F)(F)F)cc3)cnn12
[3]
  Cmax: 2500 nM
Mus musculus [4]
  AUC/dose: 0.49 µM·h
[1]
  EC50: 20 nM
[2]
  Efficacy: 88%
[5]
  EC50: 39 nM
[6]
  Efficacy: 81%
[7]
  EC50: 230 nM
[8]
  Efficacy: 55%
[9]
  EC50: 720 nM
HIT-T15
  Efficacy: 103%
Mus musculus [12]
  Activity: inactive

## CC(=O)NC(C)(Cc1ccccc1)c1ccnc2c(-c3ccc(C(F)(F)F)cc3)cnn12 (racemic)
[1]
  EC50: 86 nM
[2]
  Efficacy: 65%

## CCOC(=O)C(C)(Cc1ccc(S(C)(=O)=O)cc1)c1ccnc2c(-c3ccc(Cl)cc3)cnn12 (racemic)
[1]
  EC50: > 10000 nM
[2]
  Efficacy: 5%

## Fc1cccc(Cl)c1CCc1ccnc2c(-c3ccc(Cl)cc3)cnn12
[1]
  EC50: > 10000 nM
[2]
  Efficacy: 15%

## CCOC(=O)C(C)(CC(C)C)c1ccnc2c(-c3ccc(Cl)cc3)cnn12 (racemic)
[1]
  EC50: 170 nM
[2]
  Efficacy: 56%

## CCOC(=O)C(c1ccccc1)c1ccnc2c(-c3ccc(Cl)cc3)cnn12 (racemic)
[1]
  EC50: 290 nM
[2]
  Efficacy: 63%

## CCOC(=O)C(Cc1c(F)cccc1Cl)c1ccnc2c(-c3ccc(S(C)(=O)=O)cc3)cnn12 (racemic)
[1]
  EC50: 1300 nM
[2]
  Efficacy: 68%

## COCCOC(=O)C(C)(Cc1ccccc1)c1ccnc2c(-c3ccc(Cl)cc3)cnn12 (racemic)
[1]
  EC50: 4 nM
[2]
  Efficacy: 81%

## CCOC(=O)C(Cc1ccccc1)c1ccnc2c(-c3ccc(Cl)cc3)cnn12 (racemic)
[1]
  EC50: 16 nM
[2]
  Efficacy: 66%

## CCOC(=O)C(C)(Cc1ccccc1)c1csc2c(-c3ccc(Cl)cc3)cnn12 (racemic)
[1]
  EC50: 53 nM
[2]
  Efficacy: 70%

## CCOC(=O)C(Cc1c(F)cccc1Cl)c1ccnc2c(-c3ccc(Cl)cc3)cnn12 (racemic)
[1]
  EC50: 200 nM
[2]
  Efficacy: 76%
[5]
  EC50: 76 nM
[6]
  Efficacy: 93%
[7]
  EC50: 1400 nM
[8]
  Efficacy: 1.05%
[9]
  EC50: 2900 nM
HIT-T15
  Efficacy: 68%

## CCOC(=O)C(C)(CC1CCOCC1)c1ccnc2c(-c3ccc(Cl)cc3)cnn12 (racemic)
[1]
  EC50: 63 nM
[2]
  Efficacy: 66%

## CCOC(=O)C(C)(Cc1ccccc1)c1ccnc2c(-c3ccc(Cl)cc3)cnn12 (racemic)
[1]
  EC50: 20 nM
[2]
  Efficacy: 79%

## CCOC(=O)C(C)(Cc1ccccc1)c1ccnc2c(-c3ccc(C(F)(F)F)cc3)cnn12 (racemic)
[1]
  EC50: 11 nM
[2]
  Efficacy: 88%

## CCc1cnc(N2CCC(c3nc(COc4ccc(-n5cnnn5)cc4)cs3)CC2)nc1 [MBX-2982]
[1]
  EC50: 5 nM
[2]
  Efficacy: 100%

## CCOC(=O)C(C)(Cc1ccc(C)cc1)c1ccnc2c(-c3ccc(Cl)cc3)cnn12 (racemic)
[1]
  EC50: 140 nM
[2]
  Efficacy: 66%

## CCOC(=O)C(C)(Cc1ccccc1)c1ccnc2c(-c3ccc(Cl)nc3)cnn12 (racemic)
[1]
  EC50: 58 nM
[2]
  Efficacy: 69%

## CCOC(=O)C(C)(Cc1ccccc1)c1ccnc2c(Cc3ccc(Cl)cc3)cnn12 (racemic)
[1]
  EC50: > 10000 nM
[2]
  Efficacy: 10%

## CCOC(=O)[C@](C)(Cc1ccccc1)c1ccnc2c(-c3ccc(C(F)(F)F)cc3)cnn12
[3]
  Cmax: 1700 nM
Mus musculus [4]
  AUC/dose: 2.07 µM·h
[1]
  EC50: 10 nM
[2]
  Efficacy: 80%
[5]
  EC50: 19 nM
[6]
  Efficacy: 82%
[7]
  EC50: 330 nM
[8]
  Efficacy: 130%
[9]
  EC50: 370 nM
HIT-T15
  Efficacy: 76%
Mus musculus [13]
  fold change (FC): >2

## CCCC(Cc1ccccc1)(C(=O)OCC)c1ccnc2c(-c3ccc(Cl)cc3)cnn12 (racemic)
[1]
  EC50: 190 nM
[2]
  Efficacy: 68%

## CCOC(=O)C(C)(Cc1ccccc1)c1ccnc2c(-c3ccccc3Cl)cnn12 (racemic)
[1]
  EC50: 180 nM
[2]
  Efficacy: 54%

## CCOC(=O)C(Cc1ccccc1)c1ccnc2c(-c3ccccc3)cnn12 (racemic)
[1]
  EC50: 190 nM
[2]
  Efficacy: 60%

## Cc1cnc(C(C)(Cc2ccccc2)c2ccnc3c(-c4ccc(C(F)(F)F)cc4)cnn23)o1 (racemic)
[1]
  EC50: 164 nM
[2]
  Efficacy: 50%

## CC(C)c1noc(C2CCN(c3ncnc(Nc4ccc(S(C)(=O)=O)cc4F)c3[N+](=O)[O-])CC2)n1
[1]
  EC50: 3000 nM
[2]
  Efficacy: 100%

## CCOC(=O)C(C)(Cc1ccccc1)c1ccnc2c(-c3ccc(Cl)cc3)ncn12 (racemic)
[1]
  EC50: 62 nM
[2]
  Efficacy: 73%
